Data from US12005125B2, “Nanoparticles for use in photodynamic therapies and methods of making, evaluating and using the same” (Mi2 Holdings LLC, priority 2020, dated 2024).

Key:
[1] = ADMA fluorescent probe test: rate of total Type 1 and 2 ROS production by an illuminated photosensitizer (k-value); type: physicochemical; details: for k (rate constant of Type 1 and 2 ROS production, slope of Ln(I/I0) of ADMA vs time): free PS illuminated at the wavelength of its maxima, [PS] E-6 (clinically relevant 1-2 uM); for k′ (k/kstd): relative to methylene blue (MB) as standard; for k″ (1−k′): x coordinate of PS grid, MB = origin
Description: (§1) Discussed below are evaluations methods and system for evaluating a PS for Type ½ Production. The above describes the parameters that would best define an ideal practical PS. […] This can be semi-quantitatively analyzed using fluorescent molecular probes that scavenge Type ½ ROS. Two specific probes ideal for this are 9,10-anthracene bis(methylene) dimalonic acid (ADMA) and singlet oxygen sensor green (SOSG).
(§2) Anthracene and its derivatives are sensitive to both Type 1 and Type 2 ROS, while SOSG is specifically for Type 2 ROS studies.^9 By tracking the fluorescent changes of these probes over time, the Type ½ ROS and rates of production by a set of PSs can be directly compared in a semi-quantitative manner. In the work to follow, AMDA is the anthracene derivative utilized.
ADMA decays according to first order rate law kinetics. As such, the rate of total Type 1 and 2 ROS may be studied by tracking its fluorescence loss over time as a natural log, yielding a linear plot whose slope is the rate constant of Type 1 and 2 ROS production (referred to as the k-value). The greater the rate constant, the more Type 1 and Type 2 ROS being produced, and thus PSs compared under identical conditions (equivalent [PS], [02], flux, temp) can be semi-quantitatively compared.
(§3) Combining the findings of the SOSG and ADMA tests, semi-quantitative comparisons and estimates about the performance of PSs in a given set may be extrapolated, when performed under identical conditions (equivalent [PS], [O2], flux, temp). This will aid in choosing a PS that maximizes PDT efficacy by showing it has a minimum of Type 1 ROS and maximum of Type 2 ROS production, while also producing at a sufficient rate to efficiently ablate tissue.
(§4) The exact method of study is as follows, using a factory default Horiba Duetta:
(§5) 3. Pulse the molecular probe for initial fluorescence
(§6) • a. Simple fluorescence scan • b. […] Ex/Em slits for both=⅔ nm, Integration for 1 second, 5 scans • e. The peak of highest counts is used 2. The PS is illuminated using the wavelength of its maxima for a set amount of time • a. Fixed wavelength fluorescent study mode; choose a time point desired • b. Ex/Em bandwidth=10/1 nm 4. Pulse the molecular probe for fluorescent changes 5. Repeat Steps 2 and 3 until the range time values desired is covered 6. Treat the data • a. Anthracene=Ln(I/I0) vs time; slope=k-value • b. SOSG=I/I0 vs time; slope=S-value
(§7) Using a PS as an assigned origin (standard by which all other PSs are compared to), any PS may be charted by comparing the k and S-values (k/kstd=k′, S/Sstd=S′, k″=1−k′, S″=S′−1) at clinically relevant concentrations (1-2 uM). By plotting the k″ and S″ values as x,y coordinates (respectively), the semi-quantitative comparison of PSs against each other may be directly visualized; the origin PS will have a position of 0,0. The x-axis will then stretch from −∞ to 1, and y-axis from −1 to ∞.

[2] = SOSG (singlet oxygen sensor green) fluorescent probe test: Type 2 ROS production by an illuminated photosensitizer (S-value); type: physicochemical; details: for S (slope of SOSG I/I0 vs time, Type 2 ROS production): free PS illuminated at the wavelength of its maxima, [PS] E-6 (clinically relevant 1-2 uM); for S′ (S/Sstd): relative to methylene blue (MB) as standard; for S″ (S′−1): y coordinate of PS grid, MB = origin
Description: as §1, §2
SOSG functions in a manner opposite to that of the anthracene probe; instead of a fluorescence loss, SOSG experiences a fluorescence enhancement when interacting with Type 2 ROS; Type 1 ROS has no effect. […] Therefore, the steeper the slope (S-value), the more Type 2 ROS being produced.
as §3, §4, §5, §6, §7

[3] = when covalently conjugated to 8PEGA; cited from earlier work
[4] = cited from earlier work

| Compound | k (rate constant of Type 1 and 2 ROS production, slope of Ln(I/I0) of ADMA vs time) [1] | k′ (k/kstd) [1] | k″ (1−k′) [1] | S (slope of SOSG I/I0 vs time, Type 2 ROS production) [2] | S′ (S/Sstd) [2] | S″ (S′−1) [2] | k-values [3] | solubility in aqueous media ([4]; when covalently conjugated to 8PEGA) | k-vlaue (E-4) ([1]; [PS] 3.99E−06) | SOSG (E-2) ([2]; [PS] 3.91E−06) | solubility in water [4] |
| --- | --- | --- | --- | --- | --- | --- | --- | --- | --- | --- | --- |
| CN(C)c1ccc2nc3ccc(=[N+](C)C)cc-3sc2c1 [MB, Methylene blue] | 6.13 E-4 s^−1 | 1 | 0.00 | 0.46 E−2 s^−1 | 1 | 0.00 | – | – | – | – | – |
| CCNc1cc2[s+]c3cc(NCC)c(C)cc3nc2cc1C.[Cl-] [NMB, New Methylene Blue] | 12.1 E-4 s^−1 | 1.97 | −0.97 | 0.96 E−2 s^−1 | 2.09 | 1.09 | – | – | – | – | – |
| Chlorin e6 [Ce6] | 0.94 E-4 s^−1 | 0.153 | 0.85 | 0.73 E−2 s^−1 | 1.59 | 0.59 | improved | markedly enhanced | – | – | – |
| IRDye 700DX HHS Ester [IR700] | 1.83 E-4 s^−1 | 0.299 | 0.70 | 2.04 E−2 s^−1 | 4.43 | 3.43 | – | – | 2.62 E-4 | 2.89 E-2 | water soluble, having good solubility |
| Verteporfin | 0.16 E-4 s^−1 | 0.03 | 0.97 | 0.06 E−2 s^−1 | 0.13 | −0.87 | – | – | – | – | – |
